Assay results: patent US9150543B2, “Substituted indolyl alkyl amino derivatives as inhibitors of histone deacetylase” (Janssen Pharmaceutica N. V., priority 2004, dated 2015)
≈ marks a conversion by molar mass, not a printed value. Where two headings read alike, the source gives them in different places. One block for each compound: values may come before it.

Tests used:
[1] = test system: A2780 ovarian carcinoma cells; test: Antiproliferative activity on A2780 cells, MTT (C.2); type: cell-based; settings: Homo sapiens, 96 h, four days of incubation, read-out: Cellular activity pIC50 C.2 (converted)
Experimental: All compounds tested were dissolved in DMSO and further dilutions were made in culture medium. Final DMSO concentrations never exceeded 0.1% (v/v) in cell proliferation assays. Controls contained A2780 cells and DMSO without compound and blanks contained DMSO but no cells. MTT was dissolved at 5 mg/ml in PBS. A glycine buffer comprised of 0.1 M glycine and 0.1 M NaCl buffered to pH 10.5 with NaOH (1N) was prepared (all reagents were from Merck).
The human A2780 ovarian carcinoma cells (a kind gift from Dr. T. C. Hamilton [Fox Chase Cancer Centre, Pennsylvania, USA]) were cultured in RPMI 1640 medium supplemented with 2 mM L-glutamine, 50 μg/ml gentamicin and 10% fetal calf serum. Cells were routinely kept as monolayer cultures at 37° C. in a humidified 5% CO2 atmosphere. Cells were passaged once a week using a trypsin/EDTA solution at a split ratio of 1:40. All media and supplements were obtained from Life Technologies. Cells were free of mycoplasma contamination as determined using the Gen-Probe Mycoplasma Tissue Culture kit (supplier: BioMerieux).
Cells were seeded in NUNC™ 96-well culture plates (Supplier: Life Technologies) and allowed to adhere to the plastic overnight. Densities used for plating were 1500 cells per well in a total volume of 200 μl medium. After cell adhesion to the plates, medium was changed and drugs and/or solvents were added to a final volume of 200 μl. Following four days of incubation, medium was replaced by 200 μl fresh medium and cell density and viability was assessed using an MTT-based assay. To each well, 25 μl MTT solution was added and the cells were further incubated for 2 hours at 37° C. The medium was then carefully aspirated and the blue MTT-formazan product was solubilized by addition of 25 μl glycine buffer followed by 100 μl of DMSO. […] Within an experiment, the results for each experimental condition are the mean of 3 replicate wells. For initial screening purposes, compounds were tested at a single fixed concentration of 10^−6 M. For active compounds, the experiments were repeated to establish full concentration-response curves. For each experiment, controls (containing no drug) and a blank incubation (containing no cells or drugs) were run in parallel. The blank value was subtracted from all control and sample values. For each sample, the mean value for cell growth (in absorbance units) was expressed as a percentage of the mean value for cell growth of the control. […] Herein the effects of test compounds are expressed as pIC50 (the negative log value of the IC50-value)(see Table F-3).

[2] = Solubility/stability at different pH's, chemiluminescent nitrogen detector (C.3.b); type: physicochemical; settings: aqueous buffer; pH = 2.3
Excerpt: In a second method the solubility of a compound at different pH's can be measured with the use of a Chemiluminescent Nitrogen Detector (see example C.3.b).
The solubility of a compound, at different pH's, can also be measured with the use of a chemiluminescent nitrogen detector. (see Table F-3).

[3] = target: histone deacetylase (HeLa nuclear extracts); test: In vitro assay for inhibition of histone deacetylase with [3H]-labelled substrate (C.1.a); type: biochemical; settings: [3H]-acetylated histone H4 peptide substrate
Experimental: As a substrate for measuring HDAC activity a synthetic peptide, i.e. the amino acids 14-21 of histone H4, was used. The substrate is biotinylated at the NH2-terminal part with a 6-aminohexanoic acid spacer, and is protected at the COOH-terminal part by an amide group and specifically [^3H]acetylated at lysine 16. The substrate, biotin-(6-aminohexanoic)Gly-Ala-([^3H]-acetyl-Lys-Arg-His-Arg-Lys-Val-NH2), was added in a buffer containing 25 mM Hepes, 1 M sucrose, 0.1 mg/ml BSA and 0.01% Triton X-100 at pH 7.4. After 30 min the deacetylation reaction was terminated by the addition of HCl and acetic acid. (final concentration 0.035 mM and 3.8 mM respectively). After stopping the reaction, the free ^3H-acetate was extracted with ethylacetate. After mixing and centrifugation, the radioactivity in an aliquot of the upper (organic) phase was counted in a β-counter.
For each experiment, controls (containing HeLa nuclear extract and DMSO without compound), a blank incubation (containing DMSO but no HeLa nuclear extract or compound) and samples (containing compound dissolved in DMSO and HeLa nuclear extract) were run in parallel. In first instance, compounds were tested at a concentration of 10^−5M. […] In each test the blank value was subtracted from both the control and the sample values. The control sample represented 100% of substrate deactylation. For each sample the radioactivity was expressed as a percentage of the mean value of the controls. […] Herein the effects of test compounds are expressed as pIC50 (the negative log value of the IC50-value) (see Table F-3).

[4] = Metabolic stability with rat hepatocytes cell culture (C.5.b); type: in vitro ADME; settings: 5 μM
Experimental: Rat hepatocytes were isolated from male Sprague Dowley rats. The compounds were dissolved to a 5 mM stock solution in 100% DMSO and incubated at a final concentration of 5 μM for 0, 15, 30, 60 and 120 min with rat hepatocyte cell cultures (0.5 million viable cells/0.5 ml) using 24-well plates.
Samples were prepared for LC-MS by addition of two volumes of DMSO. The samples were thoroughly shaken and subsequently centrifuged at 900 g for 10 min (room temperature). All experiments were performed in triplicate. Of the resulting supernatant 50 μl was analysed by LC-MS.
For LC-MS, elution of samples was performed on a Hypersil BDS C18 column (50×4.6 mm, 5 μm, Thermohypersil, UK). The HPLC system comprised a Surveyor delivery system (Surveyor Inc., San Jose, US) equipped with a Surveyor autosampler device. Elution was with buffer A (10 mM ammoniumacetate (pH 6.9) in H2O/Acetonitrile (95:5)) and solvent B (acetonitrile) at a flow rate of 1.2 ml/min. The gradient employed was 0.5 min solvent A as start condition followed by increasing the organic phase concentration from 0% B till 95% B over 2 min in a linear fashion. This phase was kept stationary for a further 2 min and reduced again to 0% B within 0.5 min.
Total injection volume of samples was 50 μL. Column oven temperature was kept at 40° C. The LC flow was splitted for MS detection and 0.1 ml let into the source. An triple quadrupol mass spectrometer TSQ Quantum (Thermofinnigan, LaJolla, USA) mass spectrometer fitted with an ESI source was used for detection. Source voltage was set at 3800 volt, the capillary temperature at 300° C. The mass spectrometer was operated in positive ion mode in SIM adjusted to the mass of M+H with a scan width of 1 Da for quantification purposes. Instrument control, data acquisition and processing were performed using the Xcalibur software (ThermoFinnigan, San Jose, Calif., U.S.A). The metabolic stability of compounds in rat hepatocytes was expressed as in vitro half-lives.

[5] = test system: p21 promoter reporter A2780 tumour in nude mice; test: p21 promoter induction, in vivo method, tumour fluorescence (C.6.c); settings: 20-40 mpk orally or intravenously daily during 6 days, ranked inactive, weaker, identical or better than R306465
Experimental: Another method tests the capacity of compounds to induce p21 as the consequence of HDAC inhibition at the cellular level. […] The reporter gene is a fluorescent protein and the expression of the reporter gene is measured as the amount of fluorescent light emitted (see example C.6.b.). The last method is an in vivo method wherein mice are used for screening the pharmaceutical activity of a compound. The above described stably transformed tumour cells can be administered to mice in an amount sufficient to effect production of a tumour. After the tumour cells had sufficient time to form a tumour, a potentially active compound can be administered to the animals and the effect of said compound on the tumour cells is evaluated by measuring the expression of the reporter gene. Incubation with pharmaceutical active compounds will result in an increase of reporter gene expression compared to the control levels (see example C.6.c.)
A selected clone was injected subcutaneous (10^7 cells/200 μl) into the flank of nude mice and a calliper measurable tumour was obtained after 12 days. […] Tumours were evaluated for fluorescence by the in-house developed Automated Whole Body Imaging System (Fluorescent stereomicroscope type Olympus® SZX12 equipped with a GFP filter and coupled to a CCD camera type JAI® CV-M90 controlled by a software package based on the IMAQ Vision Software from National Instruments®). […]

- IC50 [1]: 316 nM
- solubility [2]: 2000 µg/mL (≈ 5.07 mM)
- Enzymatic activity pIC50 C.1.a. [3]: 8.6
- in vitro half-live [4]: 60 min
Compound: O=C(NO)c1cnc(N2CCC(CNCCc3c[nH]c4ccccc34)CC2)nc1 [Compound 5]

Compound: CCCO [propanol]
- % metabolism (15 min incubation with microsomes, compound 5 μM): 25%

- % metabolism (human, 15 min, 5 μM): 45%
Compound: COc1cc(N)c(Cl)cc1C(=O)NC1CCN(CCCOc2ccc(F)cc2)CC1OC (stereo not drawn) [Cisapride]

Compound: Cn1cc(CNCC2CCN(c3ncc(C(=O)NO)cn3)CC2)c2ccccc21 [Compound 1]
- tumour fluorescence ranking versus R306465 [5]: better than R306465
- in vitro half-live [4]: 81 min

- in vitro half-live [4]: 8 min
Compound: O=C(NO)c1cnc(N2CCN(S(=O)(=O)c3ccc4ccccc4c3)CC2)nc1 [Compound R306465, reference compound]
